US8450271B2, “Peptide-based scaffolds for cartilage regeneration and methods for their use” (Northwestern University, priority 2009, dated 2013)
Where no end group is shown, it is not given here. The star is where a group is joined. Lauroyl = CCCCCCCCCCCC(=O)*

Tests used:
[1] = tested on: Rabbit Full Thickness Articular Cartilage Defects; assay: Animal observation and gross pathology of rabbit knee cartilage defects at 12 weeks; type: in vivo, New Zealand White Rabbits; conditions: gross examination at 12 weeks
Method: Animal study was conducted at Northwestern University (Chicago, Ill.) in accordance with a protocol approved by the University's Animal Care and Usage Committee (ACUC). Ten (10) male New Zealand White Rabbits (weighing 3-3.5 kg) were anesthetized by intramuscular injection of ketamine at 30-40 mg/kg and xylazine 5-7 mg/kg. Isoflourane (1-3%) and oxygen were supplied by face mask until the animal was induced to sedation and general anesthesia for the entire procedure. Life support monitoring was supervised by veterinarians at Northwestern University's Center for Comparative Medicine (CCM, Chicago, Ill.). Under sterile aseptic technique, a midline 2-cm incision was made with the knee flexed at 20 degrees and subsequently a medial parapatellar capsulotomy was performed and the patella was translated laterally to expose the articular surface of the trochlea. Two full thickness chondral defects 2-mm in diameter were created in the trochlea (proximal-medial and distal-lateral) using curettes. […]
Post-operatively each rabbit was given intramuscular (IM) antibiotics (Baytril 72 hours duration) and IM pain medicine (Buprenex 24 hours duration). Signs of local or systemic infection were recorded as well as the general health and recovery of the rabbits. Rabbits were also evaluated for ability to weight bear and mobility within cages. […]

recombinant TGF-β1 = recombinant TGF-β1 (Homo sapiens, UniProt P01137); conditions: among all possible 7-mer peptide sequences; cited from earlier work
[2] = tested on: Rabbit Full Thickness Articular Cartilage Defects; assay: Histological evaluation (O'Driscoll scoring) of cartilage regeneration after microfracture in rabbit articular cartilage defect model; type: in vivo, New Zealand White Rabbits
Method: Animal study was conducted at Northwestern University (Chicago, Ill.) in accordance with a protocol approved by the University's Animal Care and Usage Committee (ACUC). Ten (10) male New Zealand White Rabbits (weighing 3-3.5 kg) were anesthetized by intramuscular injection of ketamine at 30-40 mg/kg and xylazine 5-7 mg/kg. Isoflourane (1-3%) and oxygen were supplied by face mask until the animal was induced to sedation and general anesthesia for the entire procedure. Life support monitoring was supervised by veterinarians at Northwestern University's Center for Comparative Medicine (CCM, Chicago, Ill.). Under sterile aseptic technique, a midline 2-cm incision was made with the knee flexed at 20 degrees and subsequently a medial parapatellar capsulotomy was performed and the patella was translated laterally to expose the articular surface of the trochlea. Two full thickness chondral defects 2-mm in diameter were created in the trochlea (proximal-medial and distal-lateral) using curettes. The articular cartilage, including the calcified cartilage layer, was completely removed and subchondral bone was exposed using a micro-curette as shown in FIG. 4a. Care was taken to not disrupt the subchondral bone, and sharp edges were created at the transition zone with the surrounding intact cartilage. Microfracture was performed within the defects by creating 3 holes spaced equally apart, and 2-mm deep to subchondral bone with a micro-awl. Marrow blood was seen emerging out of each microfracture hole and was allowed to infiltrate the cartilage defect (see FIG. 4b), which was then treated as described in Example 4.2 by application of the TGF-binding peptide amphiphile gel, or a control gel, with or without the addition of exogenous recombinant TGF-β1.
Post-operatively each rabbit was given intramuscular (IM) antibiotics (Baytril 72 hours duration) and IM pain medicine (Buprenex 24 hours duration). Signs of local or systemic infection were recorded as well as the general health and recovery of the rabbits. Rabbits were also evaluated for ability to weight bear and mobility within cages. At 12-weeks post-surgery rabbits were euthanized by injection of pentobarbital intravenously with a secondary measure of bilateral thoracotomy. Subsequently, the distal femur was harvested and processed for histological analysis.
Two full-thickness defects were created in each knee, resulting in 4 defects per rabbit (or 40 defects total for the 10 rabbits studied). Rabbit knees were divided into 4 groups, with both defects in each knee receiving the same treatment, and the contralateral knee serving as a control to account for any systemic effects. A total volume of 10 microliters (uL) of the test solutions were administered directly to each cartilage defect by micropipette, using sterile, disposable plastic tips. The treatment received by each group is summarized as follows:
In order to induce gelation of the peptide amphiphile solutions in situ in the defect site, 8 uL of a 12.5 mg/mL PA solution in phosphate-buffered saline (PBS) was administered followed immediately by 2 uL of a 0.5 M CaCl2 (in water), resulting in a final concentration of 10 mg/mL of the peptide amphiphile and 100 mM CaCl2. Recombinant human TGF-β1 (rhTGF-β1, Peprotech Inc.) was included in the PA solutions for Group 1, 2 and 3, in a concentration of […], resulting in a total dose of 1 ng per defect at the treatment dose of 10 uL. For animals receiving the TGF-binding peptide amphiphile (SEQ ID NO:4) this molecule was mixed at 10 mol % with the filler peptide amphiphile (SEQ ID NO:8) (a 1:9 molecular ratio). Each defect received 0.1 mg total peptide amphiphile (10 mg/mL in a 10 uL dose), either filler PA alone (Group 2) or filler PA plus TGF-binding PA (Group 3 and 4).
After the animals were sacrificed and tissue harvested at 12 weeks, extracted femur specimens were fixed in 10% neutral buffered formalin, decalcified for 24 hours, and the tissue processed for paraffin embedding. […]

[3] = O'Driscoll score = 0, 1, 2 or 3, Mean ± SD, 12-weeks post-treatment
[4] = O'Driscoll score = 0, 1 or 2, Mean ± SD, 12-weeks post-treatment

Sequence of recombinant TGF-β1 (P01137 279-390 limits assumed): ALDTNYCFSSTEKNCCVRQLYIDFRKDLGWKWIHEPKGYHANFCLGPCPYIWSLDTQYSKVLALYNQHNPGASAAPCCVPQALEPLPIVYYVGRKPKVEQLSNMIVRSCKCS

Substance: HSNGLPLGGGSEEEAAAVVV(K)-CO(CH2)10CH3 (HSNGLPLGGGSEEEAAAVVVK(Lauroyl)) [TGF-binding PA]
- macroscopic appearance of repair tissue (tissue fill, defect boundary) [1]: significantly more hyaline-like tissue filling the defects

Substance: HSNGLPL
- binding to recombinant TGF-β1 (phage display) (recombinant TGF-β1): strong, specific binding sequence

Substance: rhTGF-β1: Recombinant human TGF-β1 (Peprotech Inc.); Group 1: 10 uL of PBS with 1 ng of rhTGF-β1
- qualitative assessment of histological sections (tissue morphology, defect fill, Safranin-O and Type II collagen staining) ([2]; 12 weeks, compared to controls): few had complete filling of the defect area
- Degenerative Changes [2, 3]: 2.70 ± 0.35
- Hypocellularity [2, 3]: 1.96 ± 0.72
- Safranin-O staining of matrix [2, 3]: 1.48 ± 0.60
- Surface regularity [2, 3]: 2.00 ± 0.80
- Bonding to adjacent cartilage [2, 4]: 1.33 ± 0.53
- Chondrocyte clustering [2, 4]: 1.26 ± 0.40
- Structural integrity [2, 4]: 1.07 ± 0.62
- Thickness [2, 4]: 1.15 ± 0.60
- Cellular morphology ([2]; O'Driscoll score = 0, 2, or 4, Mean ± SD, 12-weeks post-treatment): 2.56 ± 1.43
- Total (max. score = 24) ([2]; O'Driscoll total histological score, Mean ± SD, 12-weeks post-treatment): 15.52 ± 4.74
- O'Driscoll histological score ([2]; maximum possible score of 24, 12 weeks): 15.5±4.7
- defects with <50% thickness compared to the surrounding cartilage ([2]; number of defects, 12 weeks): 1 of 9
- defects with mild chondrocyte clustering ([2]; number of defects, 12 weeks): 7 of 9
- defects with normal cellularity in the regenerated tissue ([2]; number of defects, 12 weeks): 2 of 9
- defects with regenerated tissue completely bonded to the adjacent cartilage ([2]; number of defects, 12 weeks): 3 of 9
- defects with >50% but <100% (50%-100%) thickness compared to the surrounding cartilage ([2]; number of remaining defects, 12 weeks): 8
